Experimental data as given in PubChem BioAssay AID2060613 (Molecular Pharmacology Branch, DTP, NCI, 2025).
pIC50: −log10 of the molar value.

System: 233499-124-R-J3-PDC complex spheroid viability
Experiment: Anticancer human tumor 233499-124-R-J3-PDC patient-derived colon adenocarcinoma cell line growth inhibition [CLK]
Details: for pIC50: curve of first compound; for viability, T/C: stronger effect = lower value
In short: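 Multi-cell-type spheroids combined patient-derived tumor cells with HUVEC endothelial cells and human mesenchymal stem cells. Paired agents were dosed in half-log steps down from about clinical Cmax, or from 10 microM where Cmax was unknown.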

[1] = second compound 0.0316 µM, first compound 0.0316 µM
[2] = second compound 0.0316 µM, first compound 0.1 µM
[3] = second compound 0.0316 µM, first compound 0.316 µM
[4] = second compound 0.0316 µM, first compound 1 µM
[5] = second compound 0.0316 µM, first compound 3.16 µM
[6] = second compound 0.0316 µM, first compound 10 µM
[7] = second compound 0.1 µM, first compound 0.0316 µM
[8] = second compound 0.1 µM, first compound 0.1 µM
[9] = second compound 0.1 µM, first compound 0.316 µM
[10] = second compound 0.1 µM, first compound 1 µM
[11] = second compound 0.1 µM, first compound 3.16 µM
[12] = second compound 0.1 µM, first compound 10 µM
[13] = second compound 0.316 µM, first compound 0.0316 µM
[14] = second compound 0.316 µM, first compound 0.1 µM
[15] = second compound 0.316 µM, first compound 0.316 µM
[16] = second compound 0.316 µM, first compound 1 µM
[17] = second compound 0.316 µM, first compound 3.16 µM
[18] = second compound 0.316 µM, first compound 10 µM
[19] = second compound 1 µM, first compound 0.0316 µM
[20] = second compound 1 µM, first compound 0.1 µM
[21] = second compound 1 µM, first compound 0.316 µM
[22] = second compound 1 µM, first compound 1 µM
[23] = second compound 1 µM, first compound 3.16 µM
[24] = second compound 1 µM, first compound 10 µM
[25] = second compound 3.16 µM, first compound 0.0316 µM
[26] = second compound 3.16 µM, first compound 0.1 µM
[27] = second compound 3.16 µM, first compound 0.316 µM
[28] = second compound 3.16 µM, first compound 1 µM
[29] = second compound 3.16 µM, first compound 3.16 µM
[30] = second compound 3.16 µM, first compound 10 µM
[31] = second compound 10 µM, first compound 0.0316 µM
[32] = second compound 10 µM, first compound 0.1 µM
[33] = second compound 10 µM, first compound 0.316 µM
[34] = second compound 10 µM, first compound 1 µM
[35] = second compound 10 µM, first compound 3.16 µM
[36] = second compound 10 µM, first compound 10 µM
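Further: spheroids exposed to the drug combinations for seven days.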
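Wherever viability, T/C is given: percent viability relative to DMSO vehicle control wells taken as 100%.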

**Q.** What does the source list for CC(C)CC(NC(=O)C(Cc1ccccc1)NC(=O)c1cnccn1)B(O)O (stereo unspecified) + CNC(=O)c1ccc(Nc2nc(OC3CCCC3)c3c(-c4ccc5nc(C)oc5c4)c[nH]c3n2)c(OC)c1?
**A.** pIC50 (second compound 0.0316 µM): 8.27; pIC50 (second compound 0.1 µM): 8.33; pIC50 (second compound 0.316 µM): 8.64; pIC50 (second compound 1 µM): 8.68; pIC50 (second compound 3.16 µM): 8.82; pIC50 (second compound 10 µM): 8.71; viability, T/C (second compound 0.0316 µM, first compound 0.000949 µM): 96.3%; viability, T/C (second compound 0.0316 µM, first compound 0.003 µM): 106%; viability, T/C (second compound 0.0316 µM, first compound 0.00949 µM): 0.33%; viability, T/C (second compound 0.0316 µM, first compound 0.03 µM): 0.21%; viability, T/C (second compound 0.0316 µM, first compound 0.0949 µM): 0.19%; viability, T/C (second compound 0.0316 µM, first compound 0.3 µM): 0.17%; viability, T/C (second compound 0.1 µM, first compound 0.000949 µM): 81.5%; viability, T/C (second compound 0.1 µM, first compound 0.003 µM): 82.5%; viability, T/C (second compound 0.1 µM, first compound 0.00949 µM): 0.57%; viability, T/C (second compound 0.1 µM, first compound 0.03 µM): 0.17%; viability, T/C (second compound 0.1 µM, first compound 0.0949 µM): 0.16%; viability, T/C (second compound 0.1 µM, first compound 0.3 µM): 0.16%; viability, T/C (second compound 0.316 µM, first compound 0.000949 µM): 69.5%; viability, T/C (second compound 0.316 µM, first compound 0.003 µM): 43.7%; viability, T/C (second compound 0.316 µM, first compound 0.00949 µM): 0.19%; viability, T/C (second compound 0.316 µM, first compound 0.03 µM): 0.16%; viability, T/C (second compound 0.316 µM, first compound 0.0949 µM): 0.14%; viability, T/C (second compound 0.316 µM, first compound 0.3 µM): 0.54%; viability, T/C (second compound 1 µM, first compound 0.000949 µM): 92.2%; viability, T/C (second compound 1 µM, first compound 0.003 µM): 30.1%; viability, T/C (second compound 1 µM, first compound 0.00949 µM): 0.18%; viability, T/C (second compound 1 µM, first compound 0.03 µM): 0.15%; viability, T/C (second compound 1 µM, first compound 0.0949 µM): 0.15%; viability, T/C (second compound 1 µM, first compound 0.3 µM): 0.15%; viability, T/C (second compound 3.16 µM, first compound 0.000949 µM): 71.7%; viability, T/C (second compound 3.16 µM, first compound 0.003 µM): 18.4%; viability, T/C (second compound 3.16 µM, first compound 0.00949 µM): 0.16%; viability, T/C (second compound 3.16 µM, first compound 0.03 µM): 0.16%; viability, T/C (second compound 3.16 µM, first compound 0.0949 µM): 0.16%; viability, T/C (second compound 3.16 µM, first compound 0.3 µM): 0.7%; viability, T/C (second compound 10 µM, first compound 0.000949 µM): 77%; viability, T/C (second compound 10 µM, first compound 0.003 µM): 34.5%; viability, T/C (second compound 10 µM, first compound 0.00949 µM): 0.2%; viability, T/C (second compound 10 µM, first compound 0.03 µM): 0.17%; viability, T/C (second compound 10 µM, first compound 0.0949 µM): 0.2%; viability, T/C (second compound 10 µM, first compound 0.3 µM): 0.66%

**Q.** With CC1(C)CCC(CN2CCN(c3ccc(C(=O)NS(=O)(=O)c4ccc(NCC5CCOCC5)c([N+](=O)[O-])c4)c(Oc4cnc5[nH]ccc5c4)c3)CC2)=C(c2ccc(Cl)cc2)C1 + CNC(=O)c1ccc(Nc2nc(OC3CCCC3)c3c(-c4ccc5nc(C)oc5c4)c[nH]c3n2)c(OC)c1 as the molecule, how does the pIC50 (second compound 0.0316 µM) read?
**A.** The pIC50 was 5.17.

**Q.** And the pIC50 (second compound 0.1 µM)?
**A.** Its pIC50 is 5.47.

**Q.** What about the pIC50 (second compound 0.316 µM) of the same molecule?
**A.** The pIC50 was 5.50.

**Q.** And the pIC50 (second compound 1 µM)?
**A.** Its pIC50 is 5.33.

**Q.** What about the pIC50 (second compound 3.16 µM) of the same molecule?
**A.** Its pIC50 is 5.54.

**Q.** What about the pIC50 (second compound 10 µM) of the same molecule?
**A.** Its pIC50 is 5.35.

**Q.** And the viability, T/C [1]?
**A.** Its viability, T/C is 79.5%.

**Q.** And the viability, T/C [2]?
**A.** The viability, T/C was 96.9%.

**Q.** What about the viability, T/C [3] of the same molecule?
**A.** The viability, T/C was 94.3%.

**Q.** And the viability, T/C [4]?
**A.** The viability, T/C was 106%.

**Q.** What about the viability, T/C [5] of the same molecule?
**A.** The viability, T/C was 96.5%.

**Q.** What about the viability, T/C [6] of the same molecule?
**A.** Its viability, T/C is 27.2%.

**Q.** And the viability, T/C [7]?
**A.** The viability, T/C was 68.9%.

**Q.** And the viability, T/C [8]?
**A.** Its viability, T/C is 70.2%.

**Q.** And the viability, T/C [9]?
**A.** Its viability, T/C is 85%.

**Q.** And the viability, T/C [10]?
**A.** The viability, T/C was 76.2%.

**Q.** What about the viability, T/C [11] of the same molecule?
**A.** Its viability, T/C is 51.6%.

**Q.** What about the viability, T/C [12] of the same molecule?
**A.** Its viability, T/C is 20.8%.

**Q.** What about the viability, T/C [13] of the same molecule?
**A.** The viability, T/C was 76.4%.

**Q.** And the viability, T/C [14]?
**A.** The viability, T/C was 79.6%.

**Q.** And the viability, T/C [15]?
**A.** The viability, T/C was 81.3%.

**Q.** And the viability, T/C [16]?
**A.** The viability, T/C was 76.8%.

**Q.** And the viability, T/C [17]?
**A.** The viability, T/C was 49.9%.

**Q.** What about the viability, T/C [18] of the same molecule?
**A.** The viability, T/C was 25.1%.

**Q.** What about the viability, T/C [19] of the same molecule?
**A.** The viability, T/C was 74.3%.

**Q.** And the viability, T/C [20]?
**A.** The viability, T/C was 90%.

**Q.** What about the viability, T/C [21] of the same molecule?
**A.** Its viability, T/C is 72.1%.

**Q.** And the viability, T/C [22]?
**A.** The viability, T/C was 68.4%.

**Q.** And the viability, T/C [23]?
**A.** The viability, T/C was 60.1%.

**Q.** What about the viability, T/C [24] of the same molecule?
**A.** The viability, T/C was 33.5%.

**Q.** And the viability, T/C [25]?
**A.** Its viability, T/C is 77.1%.

**Q.** What about the viability, T/C [26] of the same molecule?
**A.** The viability, T/C was 66.5%.

**Q.** And the viability, T/C [27]?
**A.** The viability, T/C was 76%.

**Q.** What about the viability, T/C [28] of the same molecule?
**A.** The viability, T/C was 76.6%.

**Q.** And the viability, T/C [29]?
**A.** The viability, T/C was 47.8%.

**Q.** And the viability, T/C [30]?
**A.** The viability, T/C was 24.2%.

**Q.** And the viability, T/C [31]?
**A.** The viability, T/C was 70.1%.

**Q.** What about the viability, T/C [32] of the same molecule?
**A.** Its viability, T/C is 71.9%.

**Q.** What about the viability, T/C [33] of the same molecule?
**A.** Its viability, T/C is 76.8%.

**Q.** And the viability, T/C [34]?
**A.** Its viability, T/C is 74.9%.

**Q.** What about the viability, T/C [35] of the same molecule?
**A.** Its viability, T/C is 59%.

**Q.** What about the viability, T/C [36] of the same molecule?
**A.** Its viability, T/C is 29.2%.

**Q.** What does the source list for CC1COCCN1c1cc(C2(S(C)(=N)=O)CC2)nc(-c2ccnc3[nH]ccc23)n1 (stereo unspecified) + CNC(=O)c1ccc(Nc2nc(OC3CCCC3)c3c(-c4ccc5nc(C)oc5c4)c[nH]c3n2)c(OC)c1?
**A.** pIC50 (second compound 0.0316 µM): 5.04; pIC50 (second compound 0.1 µM): 5.06; pIC50 (second compound 0.316 µM): 5.18; pIC50 (second compound 1 µM): 5.26; pIC50 (second compound 3.16 µM): 5.49; pIC50 (second compound 10 µM): 5.36; viability, T/C [1]: 90%; viability, T/C [2]: 103%; viability, T/C [3]: 77.8%; viability, T/C [4]: 87.5%; viability, T/C [5]: 89.7%; viability, T/C [6]: 46.2%; viability, T/C [7]: 76.6%; viability, T/C [8]: 76.9%; viability, T/C [9]: 71.6%; viability, T/C [10]: 70.1%; viability, T/C [11]: 70.5%; viability, T/C [12]: 47.2%; viability, T/C [13]: 81.3%; viability, T/C [14]: 88.1%; viability, T/C [15]: 74%; viability, T/C [16]: 76.6%; viability, T/C [17]: 68%; viability, T/C [18]: 40.3%; viability, T/C [19]: 86.4%; viability, T/C [20]: 59.8%; viability, T/C [21]: 61.8%; viability, T/C [22]: 74.1%; viability, T/C [23]: 61.7%; viability, T/C [24]: 36.8%; viability, T/C [25]: 72.8%; viability, T/C [26]: 77.6%; viability, T/C [27]: 82.5%; viability, T/C [28]: 70.3%; viability, T/C [29]: 50.8%; viability, T/C [30]: 30.5%; viability, T/C [31]: 69.5%; viability, T/C [32]: 69.3%; viability, T/C [33]: 69.2%; viability, T/C [34]: 63.8%; viability, T/C [35]: 59.6%; viability, T/C [36]: 29%
